# Results as given in patent publication US20210198277A1, “AMINE-SUBSTITUTED ARYL OR HETEROARYL COMPOUNDS” (Epizyme, Inc., priority 2016, published 2021).
# Biological target: T1, human EHMT2 913-1193 (Homo sapiens, UniProt Q96KQ7)
# T1 construct: recombinant purified human EHMT2 913-1193, Viva; purchased Viva
# T1 sequence (Q96KQ7 913-1193): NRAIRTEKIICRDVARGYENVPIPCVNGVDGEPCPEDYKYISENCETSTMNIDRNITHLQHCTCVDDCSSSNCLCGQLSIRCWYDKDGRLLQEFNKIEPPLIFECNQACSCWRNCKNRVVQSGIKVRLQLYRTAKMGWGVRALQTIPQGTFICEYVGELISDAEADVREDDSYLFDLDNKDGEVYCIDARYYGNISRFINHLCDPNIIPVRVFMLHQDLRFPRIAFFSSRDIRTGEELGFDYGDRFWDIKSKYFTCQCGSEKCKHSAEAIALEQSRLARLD
# Assay: EHMT2 enzyme assay on histone peptide substrate (EHMT2 PEP)
# Format: biochemical
# Settings: Table III; read-out: EHMT2 PEP (IC50 μM)
# Method in brief: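 Radiometric methyltransferase read-out: ^3H-methyl transfer from ^3H-SAM onto biotinylated histone peptide, captured on streptavidin Flashplates after 60 min reaction at room temperature. Enzyme 0.031 nM, preincubated 30 min with inhibitor; buffer 20 mM Bicine pH 7.5 with 1 mM TCEP; top compound concentration 50 μM final, 2% DMSO.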
row,IC50 [µM],Structure (SMILES)
1,0.1 to 1,"CNc1ccnc(Nc2ccc(OC)c(COC3CCN(C)C3)c2)n1 (centres unmarked) [Compound 407, N^2-(4-methoxy-3-(((1-methylpyrrolidin-3-yl)oxy)methyl)phenyl)-N^4-methylpyrimidine-2,4-diamine]"
2,0.1 to 1,"CCN1CCC(COc2cc(Nc3nccc(NC)n3)ccc2OC)C1 (centres unmarked) [Compound 408, N^2-(3-((1-ethylpyrrolidin-3-yl)methoxy)-4-methoxyphenyl)-N^4-methylpyrimidine-2,4-diamine]"
3,< 0.1,"CNc1ccnc(Nc2ccc(OC)c(OCC3CCN(C(C)C)C3)c2)n1 (centres unmarked) [Compound 409, N^2-(3-((1-isopropylpyrrolidin-3-yl)methoxy)-4-methoxyphenyl)-N^4-methylpyrimidine-2,4-diamine]"
4,1 to 10,"CNc1ccnc(Nc2ccc(OC)c(OCC3CCN(CCOC)C3)c2)n1 (centres unmarked) [Compound 410, N^2-(4-methoxy-3-((1-(2-methoxyethyl)pyrrolidin-3-yl)methoxy)phenyl)-N^4-methylpyrimidine-2,4-diamine]"
5,< 0.1,"CNc1ccnc(Nc2ccc(OC)c(OCC3CCN(C4CC4)C3)c2)n1 (centres unmarked) [Compound 411, N^2-(3-((1-cyclopropylpyrrolidin-3-yl)methoxy)-4-methoxyphenyl)-N^4-methylpyrimidine-2,4-diamine]"
6,0.1 to 1,"CNc1ccnc(Nc2ccc(OC)c(OCC3CCCN(C)C3)c2)n1 (centres unmarked) [Compound 412, N^2-(4-methoxy-3-((1-methylpiperidin-3-yl)methoxy)phenyl)-N^4-methylpyrimidine-2,4-diamine]"
7,0.1 to 1,"CNc1cc(C)nc(Nc2ccc(OC)c(OCC3CCCN(C)C3)c2)n1 (centres unmarked) [Compound 413, N^2-(4-methoxy-3-((1-methylpiperidin-3-yl)methoxy)phenyl)-N^4,6-dimethylpyrimidine-2,4-diamine]"
8,< 0.1,"CNc1ccnc(Nc2ccc(OC)c(OCCCN3CC(O)C3)c2)n1 [Compound 414, 1-(3-(2-methoxy-5-((4-(methylamino)pyrimidin-2-yl)amino)phenoxy)propyl)azetidin-3-ol]"
9,0.1 to 1,"CCCN1CCC(COc2cc(Nc3nccc(NC)n3)ccc2OC)C1 (centres unmarked) [Compound 420, N^2-(4-methoxy-3-((1-propylpyrrolidin-3-yl)methoxy)phenyl)-N^4-methylpyrimidine-2,4-diamine]"
10,0.1 to 1,"CNc1cc(C)nc(Nc2ccc(OC)c(COC3CCN(C)C3)c2)n1 (centres unmarked) [Compound 421, N^2-(4-methoxy-3-(((1-methylpyrrolidin-3-yl)oxy)methyl)phenyl)-N^4,6-dimethylpyrimidine-2,4-diamine]"
11,0.1 to 1,"CNc1ccnc(Nc2ccc(OC)c(OCC3CCN(CC4CC4)C3)c2)n1 (centres unmarked) [Compound 422, N^2-(3-((1-(cyclopropylmethyl)pyrrolidin-3-yl)methoxy)-4-methoxyphenyl)-N^4-methylpyrimidine-2,4-diamine]"
